Data from PubChem BioAssay AID330 (DTP/NCI, 2004).
Several values for one entry are separate records, joined by “and”; a condition that tells them apart may be missing. Equal entries are not always repeated. Toxic doses and inconclusive results are not listed. Square brackets hold non-standard residues; d marks the D form. Peptide text beside a SMILES is read from it. * marks the point of attachment. Cbz = O=C(OCc1ccccc1)*; Nva = CCC[CH](N)C(=O)O

System: P388 leukemia ip, CD2F1 mice, survival T/C
Assay: NCI In Vivo Anticancer Drug Screen. Data for tumor model P388 Leukemia (intraperitoneal) in CD2F1 (CDF1) mice
Details: endpoint: median survival time, higher = longer survival
Outline: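 Mice carrying the transplanted tumor received test compound or vehicle. Survival was recorded in each group, and the value is the treated-group measurement divided by that of the vehicle-treated control group.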

[1] = dose: 60.0 mg/kg/injection, schedule: Q01DX005 (ip), vehicle: Klucel (hydroxypropylcellulose) (HPC)
[2] = dose: 100.0 mg/kg/injection, schedule: Q01DX009 (ip), vehicle: saline with Tween-80
[3] = dose: 200.0 mg/kg/injection, schedule: Q01DX009 (ip), vehicle: saline with Tween-80
[4] = dose: 120.0 mg/kg/injection, schedule: Q01DX005 (ip), vehicle: Klucel (hydroxypropylcellulose) (HPC)
[5] = dose: 240.0 mg/kg/injection, schedule: Q01DX005 (ip), vehicle: Klucel (hydroxypropylcellulose) (HPC)
[6] = dose: 50.0 mg/kg/injection, schedule: Q01DX005 (ip), vehicle: saline with Tween-80
[7] = dose: 100.0 mg/kg/injection, schedule: Q01DX005 (ip), vehicle: saline with Tween-80
[8] = dose: 200.0 mg/kg/injection, schedule: Q01DX005 (ip), vehicle: saline with Tween-80
[9] = dose: 12.5 mg/kg/injection, schedule: Q01DX009 (ip), vehicle: saline
[10] = dose: 25.0 mg/kg/injection, schedule: Q01DX009 (ip), vehicle: saline
[11] = dose: 50.0 mg/kg/injection, schedule: Q01DX009 (ip), vehicle: saline
[12] = dose: 50.0 mg/kg/injection, schedule: Q01DX005 (ip), vehicle: saline
[13] = dose: 100.0 mg/kg/injection, schedule: Q01DX005 (ip), vehicle: saline
[14] = dose: 200.0 mg/kg/injection, schedule: Q01DX005 (ip), vehicle: saline
[15] = dose: 50.0 mg/kg/injection, schedule: Q01DX009 (ip), vehicle: saline with Tween-80
[16] = dose: 25.0 mg/kg/injection, schedule: Q04DX003 (ip), vehicle: saline with Tween-80
[17] = dose: 50.0 mg/kg/injection, schedule: Q04DX003 (ip), vehicle: saline with Tween-80
[18] = dose: 100.0 mg/kg/injection, schedule: Q04DX003 (ip), vehicle: saline with Tween-80
[19] = dose: 200.0 mg/kg/injection, schedule: Q04DX003 (ip), vehicle: saline with Tween-80
[20] = dose: 25.0 mg/kg/injection, schedule: Q01DX009 (ip), vehicle: water
[21] = dose: 50.0 mg/kg/injection, schedule: Q01DX009 (ip), vehicle: water
[22] = dose: 100.0 mg/kg/injection, schedule: Q01DX009 (ip), vehicle: water

CCOC(=O)N/N=C(\C)c1nc2ccccc2[nH]1
T/C (dose: 15.0 mg/kg/injection, schedule: Q01DX005 (ip), vehicle: saline with Tween-80): 106 % of control
T/C (dose: 30.0 mg/kg/injection, schedule: Q01DX005 (ip), vehicle: saline with Tween-80): 108 % of control
T/C [1]: 100 % of control
T/C (dose: 60.0 mg/kg/injection, schedule: Q01DX005 (ip), vehicle: saline with Tween-80): 101 % of control

Clc1ccc(-c2csc(NCC3CCCO3)n2)cc1 (centres undefined)
T/C (dose: 50.0 mg/kg/injection, schedule: Q01DX009 (ip), vehicle: Klucel (hydroxypropylcellulose) (HPC)): 100 % of control
T/C (dose: 100.0 mg/kg/injection, schedule: Q01DX009 (ip), vehicle: Klucel (hydroxypropylcellulose) (HPC)): 108 % of control
T/C (dose: 200.0 mg/kg/injection, schedule: Q01DX009 (ip), vehicle: Klucel (hydroxypropylcellulose) (HPC)): 100 % of control

C=C1C(=O)C23CC1CC(O)C2C12COC(O)C1C(C)(C)CCC2OC3=O (centres undefined)
T/C (dose: 1.25 mg/kg/injection, schedule: Q01DX009 (ip), vehicle: saline with Tween-80): 108 % of control
T/C (dose: 2.5 mg/kg/injection, schedule: Q01DX009 (ip), vehicle: saline with Tween-80): 99 % of control
T/C (dose: 5.0 mg/kg/injection, schedule: Q01DX009 (ip), vehicle: saline with Tween-80): 102 % of control and 120 % of control
T/C (dose: 10.0 mg/kg/injection, schedule: Q01DX009 (ip), vehicle: saline with Tween-80): 106 % of control and 115 % of control
T/C (dose: 20.0 mg/kg/injection, schedule: Q01DX009 (ip), vehicle: saline with Tween-80): 116 % of control and 118 % of control
T/C (dose: 40.0 mg/kg/injection, schedule: Q01DX009 (ip), vehicle: saline with Tween-80): 118 % of control and 124 % of control
T/C (dose: 80.0 mg/kg/injection, schedule: Q01DX009 (ip), vehicle: saline with Tween-80): 89 % of control

N#Cc1ccccc1CC(O)(c1ccccc1)c1ccccc1
T/C [2]: 99 % of control
T/C [3]: 100 % of control
T/C (dose: 400.0 mg/kg/injection, schedule: Q01DX009 (ip), vehicle: saline with Tween-80): 91 % of control

C=C1C(=O)OC2C(OC(=O)CC)CCCC12 (centres undefined)
T/C [1]: 95 % of control
T/C [4]: 98 % of control
T/C [5]: 110 % of control

CCCC(NC(=O)C(Cc1ccccc1)NC(=O)OCc1ccccc1)C(=O)O (stereo not drawn) (Cbz-Phe-[Nva]-OH; configuration not given here)
T/C [6]: 104 % of control
T/C [7]: 101 % of control
T/C [8]: 98 % of control

COCCOCCOCCOCCOCCOCCOCCOCCOCCOCCOCCOCCOCCOCCn1cc(F)c(=O)[nH]c1=O
T/C (dose: 100.0 mg/kg/injection, schedule: Q04DX002 (ip), vehicle: saline): 100 % of control
T/C (dose: 200.0 mg/kg/injection, schedule: Q04DX002 (ip), vehicle: saline): 101 % of control
T/C (dose: 400.0 mg/kg/injection, schedule: Q04DX002 (ip), vehicle: saline): 104 % of control
T/C (dose: 800.0 mg/kg/injection, schedule: Q04DX002 (ip), vehicle: saline): 100 % of control

C=CCN(CC=C)C(CC(=O)C(C)(C)C)=NCC
T/C [9]: 104 % of control
T/C [10]: 106 % of control
T/C [11]: 100 % of control and 101 % of control

OC1OC2CCC3C2C2C1C1C4CCC5OC(O)C6C3C2C1C6C54 (centres undefined)
T/C (dose: 20.0 mg/kg/injection, schedule: Q01DX005 (ip), vehicle: saline with Tween-80): 97 % of control
T/C (dose: 40.0 mg/kg/injection, schedule: Q01DX005 (ip), vehicle: saline with Tween-80): 100 % of control
T/C (dose: 80.0 mg/kg/injection, schedule: Q01DX005 (ip), vehicle: saline with Tween-80): 100 % of control

CC1(C)OC2(C)CCC1C1C2N1C(=O)C1CC1 (centres undefined)
T/C [6]: 97 % of control
T/C [7]: 104 % of control
T/C [8]: 105 % of control

COCC1OC1COC (centres undefined)
T/C [12]: 107 % of control
T/C [13]: 104 % of control
T/C [14]: 106 % of control

O=[N+]([O-])c1cccc2c(-c3nccc4c([N+](=O)[O-])cccc34)nccc12
T/C [6]: 87 % of control
T/C [7]: 87 % of control

O=C(N/N=C/c1ccc(F)cc1)c1ccncc1
T/C [15]: 91 % of control
T/C [2]: 92 % of control
T/C [3]: 90 % of control

O=C(CC(C(=O)O)N1CCNCC1)c1ccc(Cl)cc1 (centres undefined)
T/C [12]: 100 % of control
T/C [13]: 107 % of control
T/C [14]: 101 % of control

CCc1c(C)[nH]c2ccc(N)cc12
T/C [16]: 99 % of control
T/C [17]: 93 % of control
T/C [18]: 93 % of control
T/C [19]: 110 % of control

N.O=S(=O)(O)O.[Al]
T/C [15]: 100 % of control
T/C [2]: 100 % of control

COC1(OC)OC(c2ccccc2)=C(C#N)C(c2ccc(Cl)cc2)C1(OC)OC (centres undefined)
T/C [1]: 96 % of control
T/C [4]: 94 % of control
T/C [5]: 88 % of control

C[CH2][Sn]([Br])([CH2]C)[c]1c(CN(C)C)cccc1CN(C)C
T/C (dose: 3.12 mg/kg/injection, schedule: Q01DX009 (ip), vehicle: saline): 99 % of control and 100 % of control
T/C (dose: 6.25 mg/kg/injection, schedule: Q01DX009 (ip), vehicle: saline): 104 % of control and 106 % of control and 95 % of control
T/C [9]: 100 % of control and 95 % of control
T/C [10]: 104 % of control and 95 % of control

CN(C)CCCNc1cc(O)c2c(c1O)C(=O)c1ccccc1C2=O
T/C (dose: 12.5 mg/kg/injection, schedule: Q04DX003 (ip), vehicle: water): 102 % of control
T/C [20]: 109 % of control
T/C (dose: 25.0 mg/kg/injection, schedule: Q04DX003 (ip), vehicle: water): 100 % of control
T/C [21]: 120 % of control
T/C (dose: 50.0 mg/kg/injection, schedule: Q04DX003 (ip), vehicle: water): 115 % of control
T/C (dose: 88.0 mg/kg/injection, schedule: Q01DX009 (ip), vehicle: other): 110 % of control
T/C [22]: 116 % of control
T/C (dose: 100.0 mg/kg/injection, schedule: Q04DX003 (ip), vehicle: water): 103 % of control
T/C (dose: 133.0 mg/kg/injection, schedule: Q01DX009 (ip), vehicle: other): 117 % of control
T/C (dose: 200.0 mg/kg/injection, schedule: Q04DX003 (ip), vehicle: water): 111 % of control

CCNC(=O)N(CC(=O)NC)c1ncc([N+](=O)[O-])s1
T/C (dose: 100.0 mg/kg/injection, schedule: Q04DX002 (ip), vehicle: Klucel (hydroxypropylcellulose) (HPC)): 103 % of control
T/C (dose: 200.0 mg/kg/injection, schedule: Q04DX002 (ip), vehicle: Klucel (hydroxypropylcellulose) (HPC)): 101 % of control
T/C (dose: 400.0 mg/kg/injection, schedule: Q04DX002 (ip), vehicle: Klucel (hydroxypropylcellulose) (HPC)): 108 % of control

COc1ccc(Cl)c2c1[nH]c1nc3nc4cc(Cl)ccc4n3nc12
T/C (dose: 12.5 mg/kg/injection, schedule: Q01DX005 (ip), vehicle: saline with Tween-80): 90 % of control
T/C (dose: 25.0 mg/kg/injection, schedule: Q01DX005 (ip), vehicle: saline with Tween-80): 94 % of control
T/C [6]: 101 % of control and 105 % of control
T/C [7]: 105 % of control
T/C [8]: 111 % of control

O=C(C=C(C(F)(F)F)C(F)(F)F)c1ccccc1Cl
T/C (dose: 6.25 mg/kg/injection, schedule: Q01DX009 (ip), vehicle: saline with Tween-80): 110 % of control
T/C (dose: 12.5 mg/kg/injection, schedule: Q01DX009 (ip), vehicle: saline with Tween-80): 150 % of control
T/C (dose: 12.5 mg/kg/injection, schedule: Q04DX003 (ip), vehicle: saline with Tween-80): 113 % of control
T/C [16]: 118 % of control

NCCCn1ccc2c3ccccc3nc-2c1
T/C (dose: 12.5 mg/kg/injection, schedule: Q01DX009 (ip), vehicle: water): 105 % of control
T/C [20]: 90 % of control
T/C [21]: 104 % of control
T/C [22]: 105 % of control

CC(C)C(O)(C(=O)OCN1C(=O)C2C3C=CC(C2C1=O)C1C2C(=O)N(COC(=O)C(O)(C(C)C)C(C)O)C(=O)C2C31)C(C)O (centres undefined)
T/C [9]: 110 % of control
T/C [10]: 103 % of control
T/C [11]: 109 % of control
T/C (dose: 100.0 mg/kg/injection, schedule: Q01DX009 (ip), vehicle: saline): 115 % of control

C=C1C(=O)OC2C1CCC(=C)C1CC(OC3OC(CO)C(O)C(O)C3O)C(=C)C12 (centres undefined)
T/C [17]: 93 % of control
T/C [18]: 105 % of control and 86 % of control
T/C [19]: 104 % of control
T/C (dose: 400.0 mg/kg/injection, schedule: Q04DX003 (ip), vehicle: saline with Tween-80): 104 % of control and 124 % of control
